This is an account of results in ChEMBL document CHEMBL4613315, “Design of First-in-Class Dual EZH2/HDAC Inhibitor: Biochemical Activity and Biological Evaluation in Cancer Cells” (ACS Med Chem Lett, 2020).

One assay concerns the target Histone deacetylase 3 (Homo sapiens, UniProt O15379). The assay is described as follows: Inhibition of human recombinant HDAC3 using AMC-K(Ac)GL as substrate by fluorescence based assay.
In a further assay the target is T1, Histone deacetylase 8 (Homo sapiens, UniProt Q9BY41).
T1 sequence (Q9BY41 whole entry): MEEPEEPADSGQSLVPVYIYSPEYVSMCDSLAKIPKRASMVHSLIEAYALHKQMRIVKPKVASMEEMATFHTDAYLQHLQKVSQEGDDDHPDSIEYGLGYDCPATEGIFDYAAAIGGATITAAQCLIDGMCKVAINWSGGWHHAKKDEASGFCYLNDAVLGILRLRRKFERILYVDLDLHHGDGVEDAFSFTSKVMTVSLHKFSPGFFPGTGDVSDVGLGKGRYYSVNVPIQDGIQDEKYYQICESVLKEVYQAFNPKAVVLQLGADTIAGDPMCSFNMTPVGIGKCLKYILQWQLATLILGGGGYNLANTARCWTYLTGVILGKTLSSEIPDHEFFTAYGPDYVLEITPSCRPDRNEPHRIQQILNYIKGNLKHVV
The assay is described as follows: Inhibition of human recombinant HDAC8 using AMC-K(Ac)GL as substrate by fluorescence based assay.

The target of assay [1] is T2, Histone-lysine N-methyltransferase EZH2 (Homo sapiens, UniProt Q15910). Kind of assay: Inhibition of human EZH2 using core histone as substrate at 100 uM incubated for 1 hr by fluorescence based assay relative to control.
Target sequence in this assay (Q15910 whole entry, looked up): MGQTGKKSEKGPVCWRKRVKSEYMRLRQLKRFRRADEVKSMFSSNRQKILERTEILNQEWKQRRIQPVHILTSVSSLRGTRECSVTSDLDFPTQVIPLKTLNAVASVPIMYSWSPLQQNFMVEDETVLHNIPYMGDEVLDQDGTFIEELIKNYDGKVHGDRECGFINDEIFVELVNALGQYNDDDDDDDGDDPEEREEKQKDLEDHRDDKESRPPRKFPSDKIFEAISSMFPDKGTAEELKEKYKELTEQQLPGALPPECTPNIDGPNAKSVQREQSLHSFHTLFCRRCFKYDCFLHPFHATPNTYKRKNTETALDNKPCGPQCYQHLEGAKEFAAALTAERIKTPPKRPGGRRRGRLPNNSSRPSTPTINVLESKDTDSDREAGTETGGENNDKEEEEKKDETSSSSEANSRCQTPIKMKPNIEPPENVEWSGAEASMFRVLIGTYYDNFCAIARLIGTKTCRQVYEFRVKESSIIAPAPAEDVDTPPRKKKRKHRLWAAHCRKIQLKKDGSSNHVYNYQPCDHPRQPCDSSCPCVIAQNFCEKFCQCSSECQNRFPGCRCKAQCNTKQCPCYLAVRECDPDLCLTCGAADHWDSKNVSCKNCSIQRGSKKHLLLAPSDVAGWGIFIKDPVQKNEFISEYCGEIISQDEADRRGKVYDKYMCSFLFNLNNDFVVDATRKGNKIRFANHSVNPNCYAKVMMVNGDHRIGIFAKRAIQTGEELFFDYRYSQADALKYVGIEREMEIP
The target of the next assay is Histone deacetylase 5 (Homo sapiens, UniProt Q9UQL6). The assay is described as follows: Inhibition of human recombinant HDAC5 using AMC-K(TFA)GL as substrate by fluorescence based assay.
Sequence of Histone deacetylase 5 (Q9UQL6 whole entry): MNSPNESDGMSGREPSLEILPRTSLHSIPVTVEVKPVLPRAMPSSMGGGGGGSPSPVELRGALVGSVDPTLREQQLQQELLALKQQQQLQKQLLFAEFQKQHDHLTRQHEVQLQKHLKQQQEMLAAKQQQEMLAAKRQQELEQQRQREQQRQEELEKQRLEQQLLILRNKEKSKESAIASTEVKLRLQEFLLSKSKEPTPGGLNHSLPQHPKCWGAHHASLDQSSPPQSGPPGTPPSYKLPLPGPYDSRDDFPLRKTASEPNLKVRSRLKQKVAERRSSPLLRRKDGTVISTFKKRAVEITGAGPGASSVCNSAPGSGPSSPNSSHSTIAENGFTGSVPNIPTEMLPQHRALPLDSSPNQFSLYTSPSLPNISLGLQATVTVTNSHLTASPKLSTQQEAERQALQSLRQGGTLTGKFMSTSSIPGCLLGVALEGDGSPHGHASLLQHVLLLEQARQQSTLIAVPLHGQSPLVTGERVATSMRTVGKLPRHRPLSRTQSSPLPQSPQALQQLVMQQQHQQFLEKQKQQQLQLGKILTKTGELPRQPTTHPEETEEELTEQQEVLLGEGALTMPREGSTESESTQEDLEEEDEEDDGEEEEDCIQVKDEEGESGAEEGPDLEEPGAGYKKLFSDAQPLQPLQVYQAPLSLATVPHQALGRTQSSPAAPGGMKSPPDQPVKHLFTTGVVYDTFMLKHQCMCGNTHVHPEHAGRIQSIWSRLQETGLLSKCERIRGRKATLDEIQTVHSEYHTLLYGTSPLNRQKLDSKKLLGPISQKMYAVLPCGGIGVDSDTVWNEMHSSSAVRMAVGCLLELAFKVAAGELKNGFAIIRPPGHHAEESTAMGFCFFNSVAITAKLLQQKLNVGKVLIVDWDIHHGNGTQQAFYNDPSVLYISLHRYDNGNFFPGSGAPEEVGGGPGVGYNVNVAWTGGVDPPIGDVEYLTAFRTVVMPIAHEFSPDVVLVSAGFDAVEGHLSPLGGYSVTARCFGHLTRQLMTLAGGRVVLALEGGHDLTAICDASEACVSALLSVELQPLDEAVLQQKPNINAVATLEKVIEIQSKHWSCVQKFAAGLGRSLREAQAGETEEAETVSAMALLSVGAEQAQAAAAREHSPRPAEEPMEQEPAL
Assay [2] concerns the target T3, Protein deacetylase HDAC6 (Homo sapiens, UniProt Q9UBN7).
T3 sequence (Q9UBN7 whole entry): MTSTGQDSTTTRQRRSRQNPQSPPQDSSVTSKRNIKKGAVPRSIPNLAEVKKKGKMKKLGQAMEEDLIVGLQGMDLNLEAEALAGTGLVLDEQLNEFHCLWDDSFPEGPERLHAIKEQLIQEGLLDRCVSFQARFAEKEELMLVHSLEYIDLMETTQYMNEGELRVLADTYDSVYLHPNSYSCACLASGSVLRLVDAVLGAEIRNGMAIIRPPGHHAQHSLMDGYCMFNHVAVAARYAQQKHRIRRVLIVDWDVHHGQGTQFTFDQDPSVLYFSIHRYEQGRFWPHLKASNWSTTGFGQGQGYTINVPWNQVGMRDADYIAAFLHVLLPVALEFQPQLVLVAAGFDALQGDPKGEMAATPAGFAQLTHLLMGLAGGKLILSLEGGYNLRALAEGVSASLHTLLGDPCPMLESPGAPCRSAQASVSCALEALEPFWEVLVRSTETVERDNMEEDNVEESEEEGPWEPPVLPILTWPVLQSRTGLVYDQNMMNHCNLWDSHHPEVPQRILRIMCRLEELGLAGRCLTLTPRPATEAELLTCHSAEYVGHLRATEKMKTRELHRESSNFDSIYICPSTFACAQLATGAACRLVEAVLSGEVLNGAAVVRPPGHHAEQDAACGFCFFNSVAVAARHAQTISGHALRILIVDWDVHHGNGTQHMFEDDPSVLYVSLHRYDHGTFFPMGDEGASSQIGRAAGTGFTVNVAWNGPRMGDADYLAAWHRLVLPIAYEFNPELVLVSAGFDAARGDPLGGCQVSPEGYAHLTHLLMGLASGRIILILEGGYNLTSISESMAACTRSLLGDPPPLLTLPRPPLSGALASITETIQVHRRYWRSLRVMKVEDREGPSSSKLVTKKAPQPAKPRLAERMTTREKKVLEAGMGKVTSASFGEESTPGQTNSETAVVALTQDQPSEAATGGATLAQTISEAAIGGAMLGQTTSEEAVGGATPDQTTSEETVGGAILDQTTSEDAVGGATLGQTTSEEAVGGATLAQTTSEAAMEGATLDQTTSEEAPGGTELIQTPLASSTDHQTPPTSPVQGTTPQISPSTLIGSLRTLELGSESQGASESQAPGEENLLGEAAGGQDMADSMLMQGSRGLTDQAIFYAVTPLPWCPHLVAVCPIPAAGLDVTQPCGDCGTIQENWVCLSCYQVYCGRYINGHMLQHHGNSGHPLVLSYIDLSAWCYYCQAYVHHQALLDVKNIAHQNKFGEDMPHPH
Kind of assay: Inhibition of human recombinant HDAC6 using AMC-K(Ac)GL as substrate by fluorescence based assay.

For a further assay, the target named is Histone deacetylase 1 (Homo sapiens, UniProt Q13547). The assay is described as follows: Inhibition of human recombinant HDAC1 using AMC-K(Ac)GL as substrate by fluorescence based assay.
Sequence of Histone deacetylase 1 (Q13547 whole entry): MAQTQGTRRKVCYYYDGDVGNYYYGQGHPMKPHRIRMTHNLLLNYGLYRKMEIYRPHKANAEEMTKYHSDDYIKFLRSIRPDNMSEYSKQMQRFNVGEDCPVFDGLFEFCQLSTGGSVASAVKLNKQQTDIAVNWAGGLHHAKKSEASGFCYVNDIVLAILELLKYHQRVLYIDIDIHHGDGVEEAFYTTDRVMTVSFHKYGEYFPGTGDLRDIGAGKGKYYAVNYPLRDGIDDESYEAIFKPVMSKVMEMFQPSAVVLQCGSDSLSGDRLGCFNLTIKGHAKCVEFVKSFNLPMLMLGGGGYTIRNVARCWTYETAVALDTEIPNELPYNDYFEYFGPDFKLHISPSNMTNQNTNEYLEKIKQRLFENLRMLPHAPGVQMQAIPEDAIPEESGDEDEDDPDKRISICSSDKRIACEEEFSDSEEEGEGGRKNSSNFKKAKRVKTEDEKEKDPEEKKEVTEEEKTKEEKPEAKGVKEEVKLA
In another assay the target is Histone deacetylase 2 (Homo sapiens, UniProt Q92769).
Sequence of Histone deacetylase 2 (Q92769 whole entry): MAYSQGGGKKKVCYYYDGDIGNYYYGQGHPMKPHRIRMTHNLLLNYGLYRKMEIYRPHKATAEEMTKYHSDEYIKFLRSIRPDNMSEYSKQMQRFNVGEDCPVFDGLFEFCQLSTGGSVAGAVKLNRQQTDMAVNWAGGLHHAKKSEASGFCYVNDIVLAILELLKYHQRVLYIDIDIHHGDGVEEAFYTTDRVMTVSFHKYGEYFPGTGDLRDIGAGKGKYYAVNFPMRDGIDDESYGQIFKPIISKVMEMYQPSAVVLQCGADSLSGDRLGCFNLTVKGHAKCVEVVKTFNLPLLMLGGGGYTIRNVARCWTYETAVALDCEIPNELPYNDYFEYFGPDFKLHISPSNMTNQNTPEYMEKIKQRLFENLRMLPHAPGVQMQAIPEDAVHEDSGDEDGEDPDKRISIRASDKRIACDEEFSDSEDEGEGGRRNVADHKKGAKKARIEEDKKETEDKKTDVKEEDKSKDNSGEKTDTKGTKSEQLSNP
Assay [3] has as its target T2, Histone-lysine N-methyltransferase EZH2. The assay is described as follows: Inhibition of human EZH2 using core histone as substrate incubated for 1 hr by fluorescence based assay.
Target sequence in this assay (Q15910 whole entry): as the sequence (Q15910 whole entry, looked up) above

Sequence of Histone deacetylase 3 (O15379 whole entry): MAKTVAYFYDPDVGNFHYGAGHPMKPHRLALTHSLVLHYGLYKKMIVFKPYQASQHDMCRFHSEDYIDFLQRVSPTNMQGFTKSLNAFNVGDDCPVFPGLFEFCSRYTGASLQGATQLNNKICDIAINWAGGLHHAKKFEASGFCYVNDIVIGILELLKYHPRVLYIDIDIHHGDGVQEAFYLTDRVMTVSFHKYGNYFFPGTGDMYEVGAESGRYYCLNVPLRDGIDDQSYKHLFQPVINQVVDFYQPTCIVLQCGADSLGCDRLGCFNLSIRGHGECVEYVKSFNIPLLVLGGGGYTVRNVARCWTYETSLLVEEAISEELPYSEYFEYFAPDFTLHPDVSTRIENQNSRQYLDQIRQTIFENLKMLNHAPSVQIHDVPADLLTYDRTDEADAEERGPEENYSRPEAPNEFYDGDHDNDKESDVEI
Description for Histone deacetylase 2: Inhibition of human recombinant HDAC2 using AMC-K(Ac)GL as substrate by fluorescence based assay

For the molecule `Cc1cc(C)c(CNC(=O)c2cnn(-c3cccc(NC(=O)CCCCCCC(=O)NO)c3)c2C)c(=O)[nH]1`, the IC50 at Histone deacetylase 3 was found to be 1.48 µM; on Histone deacetylase 8, 2.08 µM; on Histone deacetylase 5, 101 µM; in assay [2] it was 0.01 µM; at Histone deacetylase 1 it was 0.83 µM; at Histone deacetylase 2, 2.36 µM. For the same molecule, in assay [1], the inhibition worked out at 4%.

In the case of `Cc1cc(C)c(CNC(=O)c2cnn(-c3ccccc3)c2C)c(=O)[nH]1`, in assay [3], the IC50 is 15.4 µM.

In general, IC50 refers to the concentration that gives 50% inhibition. Broadly, the inhibition is the drop in the measured response relative to a control, in per cent. Higher therefore signals a strong effect.
